According to patent publication EP4722206A1, “BENZO(HETERO)CYCLOALKYL COMPOUNDS FOR ANDROGEN RECEPTOR-DEPENDENT DISEASES” (Haihe Biopharma Co., Ltd., priority 2023, dated 2024):

Assays:
Androgen receptor (AR) = target: T1, Androgen receptor (AR) (Homo sapiens, UniProt P10275); assay: Androgen receptor (AR) reporter gene assay (ARE Luc); format: cell-based; settings: AR+ARE/Luc HEK293T cells, with 11-KDHT, 24h incubation, Bright-Lite luminescence
T1 construct: expressed in transfected cells; host or cells: AR+ARE/Luc HEK293T cells
T1 sequence (P10275 1-920): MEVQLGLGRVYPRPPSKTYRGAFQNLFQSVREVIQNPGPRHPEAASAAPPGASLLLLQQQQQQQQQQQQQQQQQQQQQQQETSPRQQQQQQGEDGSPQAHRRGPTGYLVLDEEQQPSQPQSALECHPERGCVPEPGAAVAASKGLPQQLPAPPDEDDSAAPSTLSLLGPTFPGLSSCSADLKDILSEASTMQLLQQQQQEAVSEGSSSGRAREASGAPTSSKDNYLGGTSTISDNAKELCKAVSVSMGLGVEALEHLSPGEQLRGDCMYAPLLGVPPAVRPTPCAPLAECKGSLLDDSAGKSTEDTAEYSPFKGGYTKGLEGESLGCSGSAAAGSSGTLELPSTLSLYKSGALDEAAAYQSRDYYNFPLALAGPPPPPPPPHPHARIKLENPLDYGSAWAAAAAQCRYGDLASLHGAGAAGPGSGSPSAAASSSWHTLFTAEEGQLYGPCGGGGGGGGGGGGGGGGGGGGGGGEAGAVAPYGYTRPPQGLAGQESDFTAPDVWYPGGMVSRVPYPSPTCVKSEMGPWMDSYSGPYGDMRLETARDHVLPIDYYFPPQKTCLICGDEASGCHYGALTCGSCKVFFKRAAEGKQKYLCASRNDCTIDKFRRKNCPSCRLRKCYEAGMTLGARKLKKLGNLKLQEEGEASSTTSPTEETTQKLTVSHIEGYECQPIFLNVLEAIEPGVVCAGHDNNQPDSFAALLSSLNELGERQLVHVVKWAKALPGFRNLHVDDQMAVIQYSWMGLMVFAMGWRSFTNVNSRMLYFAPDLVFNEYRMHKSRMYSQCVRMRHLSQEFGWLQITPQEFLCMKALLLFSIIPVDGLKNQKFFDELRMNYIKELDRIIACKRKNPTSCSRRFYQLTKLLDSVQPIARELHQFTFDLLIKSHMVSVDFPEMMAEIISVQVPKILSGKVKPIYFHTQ
Description: Experimental Methods: 1. The described compounds were dissolved in 100% DMSO at a final concentration of 10 mM. 100 nL each of 400X compound to be tested and 400X 11-KDHT (40 nM) represtively were added to a 384-well assay plate with Echo, followed by 20 µL of complete medium, and centrifuged at 1000 rpm for 1 min, and oscillated for 20-30 min at room temperature. 2. 20 µL of AR+ARE/Luc HEK293T cells (10,000 cells/well) were inoculated into the assay plate containing the compounds and 11-KDHT, and centrifuged at 1000 rpm for 1 min. The assay plate was incubated in a 37 °C CO2 incubator for 24h. 3. 40 µL of Bright-Lite assay reagent was transferred to each well of the assay plate, centrifuged at 1000 rpm for 1 min, and shaken for 2 min at room temperature protected from light. 4. Luminescence values (RLU) were measured using Envision. […] Table 1. AR inhibition of Representative Compounds

AR-V7 = target: T2, AR-V7 (Homo sapiens, UniProt P10275); assay: AR degradation experiment (AR-V7-HiBiT, Nano-Glo HiBiT Lytic Detection); format: cell-based; settings: 22RV1 cells stably expressing AR-V7-HiBiT, 24 hr at 37 °C; concentration required for degradation 50% of the target protein
T2 construct: fusing HiBiT tag (PromegaTM) into the C-terminus of the AR-V7 genome of 22RV1 cells; host or cells: 22RV1 cells, CRISPR/Cas9 knock-in of HiBiT at the AR-V7 C-terminus
T2 sequence (P10275 1-644 isoform P10275-3): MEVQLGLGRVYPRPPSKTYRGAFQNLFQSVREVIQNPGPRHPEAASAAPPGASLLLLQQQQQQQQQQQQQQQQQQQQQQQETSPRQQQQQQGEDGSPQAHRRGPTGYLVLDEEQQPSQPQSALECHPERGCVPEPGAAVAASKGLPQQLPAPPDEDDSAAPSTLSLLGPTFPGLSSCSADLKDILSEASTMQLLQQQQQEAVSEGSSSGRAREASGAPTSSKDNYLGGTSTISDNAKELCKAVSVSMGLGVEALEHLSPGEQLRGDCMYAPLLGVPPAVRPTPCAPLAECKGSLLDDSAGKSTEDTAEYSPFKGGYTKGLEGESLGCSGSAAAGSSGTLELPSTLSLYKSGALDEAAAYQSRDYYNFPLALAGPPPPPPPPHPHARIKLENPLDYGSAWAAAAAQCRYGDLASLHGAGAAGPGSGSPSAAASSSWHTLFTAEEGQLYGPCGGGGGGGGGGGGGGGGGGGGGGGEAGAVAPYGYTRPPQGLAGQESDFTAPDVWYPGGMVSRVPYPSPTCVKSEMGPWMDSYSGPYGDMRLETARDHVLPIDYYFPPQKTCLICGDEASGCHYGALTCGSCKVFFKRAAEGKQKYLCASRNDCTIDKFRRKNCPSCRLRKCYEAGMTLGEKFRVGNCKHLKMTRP
Description: In this experiment, cells stably expressing AR-V7-HiBiT was constructed by fusing HiBiT tag (PromegaTM) into the C-terminus of the AR-V7 genome of 22RV1 cells (ATCC) using CRISPR/Cas9 technology. The concentration of test compounds started from 1000 nM, and diluted with DMSO by 3-fold gradient for 11 points. […]

Row | IC50 (Androgen receptor (AR)) [nM] | DC50 (AR-V7) [nM] | SMILES
1 | 913 | – | N#Cc1cc2c(c(Cl)c1OCCCl)CCCC2Nc1ccc(OCOCNc2cccc3c2C(=O)N(C2CCC(=O)NC2=O)C3=O)nc1 (stereo not shown) [HANT-362]
2 | 657 | > 10000 | N#Cc1cc2c(c(Cl)c1OCCCl)CCCC2c1ccc(OCCCCOc2ccc3c(c2)C(=O)N(C2CCC(=O)NC2=O)C3=O)nc1 (stereo not shown) [HANT-338]
3 | 569 | – | N#Cc1cc2c(c(Cl)c1OCCCl)CCCC2c1ccc(OCCCNc2ccc3c(c2)C(=O)N(C2CCC(=O)NC2=O)C3=O)nc1 (stereo not shown) [HANT-339]
4 | 30 | 8.7 | N#Cc1cc2c(c(Cl)c1OCCCl)CCCC2c1cnc(NCCOCCOc2ccc3c(c2)C(=O)N(C2CCC(=O)NC2=O)C3=O)nc1 (stereo not shown) [HANT-315, 4-chloro-3-(2-chloroethoxy)-8-(2-(2-(2-(2,6-dioxopiperidin-3-yl)-1,3-dioxoisoindolin-5-yl)oxy)ethoxy-amino)pyrimidin-5-yl-5,6,7,8-tetrahydronaphthalene-2-carbonitrile]
5 | 27 | 40 | N#Cc1cc2c(c(Cl)c1OCCCl)CCCC2c1cnc(N2CCC(OCCOc3ccc4c(c3)C(=O)N(C3CCC(=O)NC3=O)C4=O)CC2)nc1 (stereo not shown) [HANT-342]
6 | 744 | – | CCOc1c(C#N)cc2c(c1Cl)CCCC2c1cnc(NCCOC2CN(c3ccc4c(c3)C(=O)N(C3CCC(=O)NC3=O)C4=O)C2)nc1 (stereo not shown) [HANT-431, 4-chloro-8-(2-((2-(2-(1-(2-(2,6-dioxopiperidin-3-yl)-1,3-dioxoisoindol-5-yl)azetidin-3-yl)oxy)ethyl)amino)pyrimidin-5-yl)-3-ethoxy-5,6,7,8-tetrahydronaphthalene-2-carbonitrile]
7 | 2 | 4.3 | N#Cc1cc2c(c(Cl)c1OCCCl)CCC[C@H]2c1cnc(NCCOCCOc2ccc3c(c2)C(=O)N(C2CCC(=O)NC2=O)C3=O)nc1 (stereo partly shown) [HANT-315-P1]
8 | 377 | – | CCOc1c(C#N)cc2c(c1Cl)CCCC2Nc1ccc(OCCCNc2ccc3c(c2)C(=O)N(C2CCC(=O)NC2=O)C3=O)nc1 (stereo not shown) [HANT-312, 4-chloro-8-(6-(3-((2-(2,6-dioxopiperidin-3-yl)-1,3-dioxoisoindolin-5-yl)amino)propoxy)pyridin-3-ylamino)-3-ethoxy-5,6,7,8-tetrahydronaphthalene-2-carbonitrile]
9 | 490 | – | N#Cc1cc2c(c(Cl)c1OCCCl)CCCC2c1cnc(NCCCNc2ccc3c(c2)C(=O)N(C2CCC(=O)NC2=O)C3=O)nc1 (stereo not shown) [HANT-314]
10 | 21 | 13 | CCOc1c(C#N)cc2c(c1Cl)CCCC2c1cnc(NCCOCCOc2ccc3c(c2)C(=O)N(C2CCC(=O)NC2=O)C3=O)nc1 (stereo not shown) [HANT-354]
11 | 29 | 24 | N#Cc1cc2c(c(Cl)c1OCCCl)CCCC2c1ccc(NCCOCCOc2ccc3c(c2)C(=O)N(C2CCC(=O)NC2=O)C3=O)nc1 (stereo not shown) [HANT-346]
12 | 476 | – | N#Cc1cc2c(c(Cl)c1OCCCl)CCCC2c1cnc(N2CCC(OC3CN(c4ccc5c(c4)C(=O)N(C4CCC(=O)NC4=O)C5=O)C3)CC2)nc1 (stereo not shown) [HANT-390]
13 | 1830 | – | N#Cc1cc2c(c(Cl)c1OCCCl)CCCC2Nc1ccc(OCOCNc2ccc3c(c2)C(=O)N(C2CCC(=O)NC2=O)C3=O)nc1 (stereo not shown) [HANT-328]
14 | 292 | 284 | N#Cc1cc2c(c(Cl)c1OCCCl)CCCC2c1cnc(N2CCC(OCCCOc3ccc4c(c3)C(=O)N(C3CCC(=O)NC3=O)C4=O)CC2)nc1 (stereo not shown) [HANT-371, 4-chloro-3-(2-chloroethoxy)-8-(2-(4-(3-((2-(2,6-dioxopiperidin-3-yl)-1,3-dioxoisoindol-5-yl)oxy)propoxy)piperidin-1-yl)pyrimidin-5-yl)-5,6,7,8-tetrahydronaphthalene-2-carbonitrile]
15 | 428 | – | N#Cc1cc2c(c(Cl)c1OCCCl)CCCC2c1cnc(N2CCC(OCCNc3ccc4c(c3)C(=O)N(C3CCC(=O)NC3=O)C4=O)C2)nc1 (stereo not shown) [HANT-393]
16 | 123 | – | N#Cc1cc2c(c(Cl)c1OCCCl)CCCC2Nc1ccc(OCNc2ccc3c(c2)C(=O)N(C2CCC(=O)NC2=O)C3=O)nc1 (stereo not shown) [HANT-329]
17 | 32 | – | N#Cc1cc(C2CCCc3c2cc(C#N)c(OCCCl)c3Cl)cnc1N1CC(OCCOc2ccc3c(c2)C(=O)N(C2CCC(=O)NC2=O)C3=O)C1 (stereo not shown) [HANT-516]
18 | 575 | – | N#Cc1cc2c(c(Cl)c1OCCCl)CCCC2c1ccc(OC2CCC(Oc3ccc4c(c3)C(=O)N(C3CCC(=O)NC3=O)C4=O)CC2)nc1 (stereo not shown) [HANT-517]
19 | 318 | – | N#Cc1cc2c(c(Cl)c1OCCCl)CCCC2c1ccc(N2CCC(OCCCOc3ccc4c(c3)C(=O)N(C3CCC(=O)NC3=O)C4=O)CC2)nc1 (stereo not shown) [HANT-512]
20 | 209 | – | N#Cc1cc2c(c(Cl)c1OCCCl)CCCC2c1ccc(OC2CCC(OCCOc3ccc4c(c3)C(=O)N(C3CCC(=O)NC3=O)C4=O)CC2)nc1 (stereo not shown) [HANT-518]
21 | 754 | – | N#Cc1cc2c(c(Cl)c1OCCCl)CCCC2c1cnc2c(cnn2CCOCCOc2ccc3c(c2)C(=O)N(C2CCC(=O)NC2=O)C3=O)c1 (stereo not shown) [HANT-515]
22 | 3870 | – | N#Cc1cc2c(c(Cl)c1OCCCl)CCC[C@@H]2c1cnc(NCCOCCOc2ccc3c(c2)C(=O)N(C2CCC(=O)NC2=O)C3=O)nc1 (stereo partly shown) [HANT-315-P2]

Row | SMILES | IC50 (Androgen receptor (AR)) [nM] | DC50 (AR-V7) [nM]
23 | N#Cc1cc2c(c(Cl)c1OCCCl)CCCC2c1ccc(N2CC(OCCOc3ccc4c(c3)C(=O)N(C3CCC(=O)NC3=O)C4=O)C2)nc1 (stereo not shown) [HANT-513] | 7.6 | –
24 | N#Cc1cc2c(c(Cl)c1OCCCl)CCCC2c1cnc(N2CC(OCCOc3ccc4c(c3)C(=O)N(C3CCC(=O)NC3=O)C4=O)C2)nc1 (stereo not shown) [HANT-519] | 23 | –
25 | N#Cc1cc2c(c(Cl)c1OCCCl)CCCC2Nc1ccc(OCCCCNc2ccc3c(c2)C(=O)N(C2CCC(=O)NC2=O)C3=O)nc1 (stereo not shown) [HANT-331, 4-chloro-3-(2-chloroethoxy)-8-((6-(4-(2-(2,6-dioxopiperidin-3-yl)-1,3-dioxoisoindolin-5-yl)amino)butoxy)pyridin-3-amino)-5,6,7,8-tetrahydronaphthalene-2-carbonitrile] | 822 | > 10000
26 | N#Cc1cc2c(c(Cl)c1OCCCl)CCCC2c1ccc(N2CCC(OCCOc3ccc4c(c3)C(=O)N(C3CCC(=O)NC3=O)C4=O)CC2)nc1 (stereo not shown) [HANT-514] | 73 | –
